Experimental data taken from patent US9201014B2, “Development of photostable near-IR cyanine dyes for in vivo imaging” (National University of Singapore, priority 2010, dated 2015).

What was measured:
[1] = Primary screening of photostability of the CyNA library (time-course fluorescence, 8 h); type: physicochemical; parameters: F/Fo, fluorescent intensity at 8 hours vs 0 hours: unit: %; conditions: 10 μM in HEPES 100 mM pH 7.4, 2% DMSO
Protocol: As a primary evaluation of photo stability, the decrease in fluorescence intensity of the 80 CyNA compounds was measured (see Table 2). The average decrease in fluorescence intensity after 8 hours of irradiation by a xenon lamp was approximately 18%. A subset of the most photostable compounds (i.e., F/Fo reported in Table 2 was greater than or equal to 95) was examined under stronger irradiation in various buffers.
10-μM CyNA solutions in 100 mM HEPES buffer (pH 7.4) containing 2% DMSO were placed in a 96-well black plate, and fluorescence intensity measurements were recorded every 10 minutes for a total period of 8 hours (excitation-emission: 790-820 nm). A subset of fourteen compounds selected according to their F8h/Fo quotients, quantum yields and maximum relative fluorescence units (RFU) values was further evaluated in a secondary screening

[2] = Absorbance and fluorescence maximum wavelengths and quantum yields of the CyNA library; type: physicochemical; conditions: for λabs, absorbance maximum wavelength / λem, fluorescence maximum wavelength: CyNA library; for φ, quantum yield: in DMSO, Cardiogreen as standard
Protocol: Since the k values of the different CyNA compounds indicated some dependency on the chemical structure of the amine, the CyNA scaffold was derivatized with a broad range of primary amines (FIGS. 4A-4C). The fluorescence properties of the 80-member CyNA library were measured. The absorption maximum wavelengths ranged from 802 nm to 806 nm, emission maximum wavelengths ranged from 817 nm to 823 nm, and the average quantum yield was approximately 0.10 (Table 2).
All the chemicals (building block amines plus others) and solvents were purchased from Sigma Aldrich, Alfa Aesar, Fluka, MERCK or Acros, and used without further purification. ^1H-NMR and ^13C-NMR spectra were recorded on Bruker Avance 300 NMR and 500 NMR spectrometers, and chemical shifts are expressed in parts per million (ppm). High-resolution mass spectrometry (HRMS) data was recorded on a Micromass VG 7035. Photobleaching experiments were performed using a UVP Blak-Ray® B-100AP high intensity UV lamp (100 W, 365 nm) Spectroscopic and quantum yield data were measured on a SpectraMax M2 spectrophotometer (Molecular Devices), and the data analysis was performed using GraphPrism 5.0. Photobleaching measurements were performed using an Eclipse Ti-U Nikon microscope (filter cube: 750/800) attached to Ti:sappire oscillator that operated in continuous wave mode, and the data was processed using the software NIS-Elements 3.10. In vivo images were taken in an IVIS Spectrum imaging system (Caliper Life Sciences).

| Compound | F/Fo, fluorescent intensity at 8 hours vs 0 hours [1] | max RFU, maximum relative fluorescence units [1] | λabs, absorbance maximum wavelength [2] [nm] | λem, fluorescence maximum wavelength [2] [nm] | φ, quantum yield [2] |
| --- | --- | --- | --- | --- | --- |
| CCCN1/C(=C/C=C2\CCCC(/C=C/C3=[N+](CCC)c4ccccc4C3(C)C)=C2N(CCCN2CCCC2=O)C(C)=O)C(C)(C)c2ccccc21 [CyNA-11] | 90 | 1250.1 | 802 | 820 | 0.11 |
| CCCCCCCCCCCCCCN(C(C)=O)C1=C(/C=C/C2=[N+](CCC)c3ccccc3C2(C)C)CCC/C1=C\C=C1\N(CCC)c2ccccc2C1(C)C [CyNA-28] | 87 | 23.9 | 804 | 818 | 0.05 |
| CCCN1/C(=C/C=C2\CCCC(/C=C/C3=[N+](CCC)c4ccccc4C3(C)C)=C2N(Cc2ccc3c(c2)OCO3)C(C)=O)C(C)(C)c2ccccc21 [CyNA-49] | 95 | 851.3 | 804 | 818 | 0.10 |
| CCCCCCCCCCCCCN(C(C)=O)C1=C(/C=C/C2=[N+](CCC)c3ccccc3C2(C)C)CCC/C1=C\C=C1\N(CCC)c2ccccc2C1(C)C [CyNA-55] | 100 | 162.3 | 804 | 819 | 0.13 |
| CCCN1/C(=C/C=C2\CCCC(/C=C/C3=[N+](CCC)c4ccccc4C3(C)C)=C2N(Cc2c(F)cccc2F)C(C)=O)C(C)(C)c2ccccc21 [CyNA-80] | 93 | 734.9 | 804 | 817 | 0.08 |
| CCCN1/C(=C/C=C2\CCCC(/C=C/C3=[N+](CCC)c4ccccc4C3(C)C)=C2N(CCC(C)(C)C)C(C)=O)C(C)(C)c2ccccc21 [CyNA-92] | 64 | 420.2 | 805 | 821 | 0.09 |
| CCCN(C(C)=O)C1=C(/C=C/C2=[N+](CCC)c3ccccc3C2(C)C)CCC/C1=C\C=C1\N(CCC)c2ccccc2C1(C)C [CyNA-95] | 91 | 1027.9 | 806 | 818 | 0.09 |
| CCCN1/C(=C/C=C2\CCCC(/C=C/C3=[N+](CCC)c4ccccc4C3(C)C)=C2N(CCC(c2ccccc2)c2ccccc2)C(C)=O)C(C)(C)c2ccccc21 [CyNA-100] | 63 | 333.8 | 804 | 819 | 0.08 |
| CCCN1/C(=C/C=C2\CCCC(/C=C/C3=[N+](CCC)c4ccccc4C3(C)C)=C2N(Cc2ccccc2C)C(C)=O)C(C)(C)c2ccccc21 [CyNA-101] | 86 | 693.9 | 806 | 822 | 0.08 |
| CCCN1/C(=C/C=C2\CCCC(/C=C/C3=[N+](CCC)c4ccccc4C3(C)C)=C2N(CCc2cccc(OC)c2)C(C)=O)C(C)(C)c2ccccc21 [CyNA-102] | 63 | 998.9 | 805 | 822 | 0.14 |
| CCCN1/C(=C/C=C2\CCCC(/C=C/C3=[N+](CCC)c4ccccc4C3(C)C)=C2N(Cc2ccccc2OCC)C(C)=O)C(C)(C)c2ccccc21 [CyNA-103] | 92 | 1106.6 | 804 | 821 | 0.14 |
| CCCN1/C(=C/C=C2\CCCC(/C=C/C3=[N+](CCC)c4ccccc4C3(C)C)=C2N(C(C)=O)C2CCN(Cc3ccccc3)CC2)C(C)(C)c2ccccc21 [CyNA-107] | 50 | 275.3 | 803 | 820 | 0.07 |
| CCCN1/C(=C/C=C2\CCCC(/C=C/C3=[N+](CCC)c4ccccc4C3(C)C)=C2N(Cc2cccc(OC)c2OC)C(C)=O)C(C)(C)c2ccccc21 [CyNA-124] | 100 | 1334.2 | 803 | 820 | 0.15 |
| CCCN1/C(=C/C=C2\CCCC(/C=C/C3=[N+](CCC)c4ccccc4C3(C)C)=C2N(CCCCc2ccccc2)C(C)=O)C(C)(C)c2ccccc21 [CyNA-131] |  | 259.8 | 804 | 819 | 0.13 |
| CCCN1/C(=C/C=C2\CCCC(/C=C/C3=[N+](CCC)c4ccccc4C3(C)C)=C2N(CCCOCC)C(C)=O)C(C)(C)c2ccccc21 [CyNA-167] | 92 | 1031.8 | 804 | 818 | 0.10 |
| CCCN1/C(=C/C=C2\CCCC(/C=C/C3=[N+](CCC)c4ccccc4C3(C)C)=C2N(C(C)=O)C2CCCC2)C(C)(C)c2ccccc21 [CyNA-180] | 91 | 991.3 | 805 | 821 | 0.14 |
| CCCN1/C(=C/C=C2\CCCC(/C=C/C3=[N+](CCC)c4ccccc4C3(C)C)=C2N(Cc2ccc(OC)cc2OC)C(C)=O)C(C)(C)c2ccccc21 [CyNA-181] | 66 | 996.8 | 805 | 821 | 0.14 |
| CCCCC(CC)COCCCN(C(C)=O)C1=C(/C=C/C2=[N+](CCC)c3ccccc3C2(C)C)CCC/C1=C\C=C1\N(CCC)c2ccccc2C1(C)C (centres unmarked) [CyNA-193] |  | 58.7 | 806 | 822 | 0.12 |
| CCCN1/C(=C/C=C2\CCCC(/C=C/C3=[N+](CCC)c4ccccc4C3(C)C)=C2N(CCc2ccc(CC)cc2)C(C)=O)C(C)(C)c2ccccc21 [CyNA-201] | 33 | 52.6 | 803 | 820 | 0.08 |
| CCCN1/C(=C/C=C2\CCCC(/C=C/C3=[N+](CCC)c4ccccc4C3(C)C)=C2N(Cc2ccc(F)cc2)C(C)=O)C(C)(C)c2ccccc21 [CyNA-218] | 85 | 549.9 | 802 | 823 | 0.08 |
| CCCN1/C(=C/C=C2\CCCC(/C=C/C3=[N+](CCC)c4ccccc4C3(C)C)=C2N(C(C)=O)C2CCCCCCC2)C(C)(C)c2ccccc21 [CyNA-219] | 65 | 902.7 | 804 | 822 | 0.14 |
| CCCN1/C(=C/C=C2\CCCC(/C=C/C3=[N+](CCC)c4ccccc4C3(C)C)=C2N(Cc2ccc(Cl)cc2)C(C)=O)C(C)(C)c2ccccc21 [CyNA-221] | 86 | 382.6 | 803 | 820 | 0.07 |
| CCCCC(CC)CN(C(C)=O)C1=C(/C=C/C2=[N+](CCC)c3ccccc3C2(C)C)CCC/C1=C\C=C1\N(CCC)c2ccccc2C1(C)C (centres unmarked) [CyNA-230] | 80 | 77.7 | 805 | 822 | 0.09 |
